Measurements: a melting point compilation (Tetko et al.; mined from patent text by program, amines drawn as free bases though some values may be those of a salt)

| Compound | melting point |
| --- | --- |
| CCOC(=O)c1cccc(N(CC(=O)OC(C)(C)C)C(=O)CNC(=O)Nc2cccc(C)c2)c1 | 71 °C |
| CCCCCCN(CCCCCC)c1ccc(C=CC2=C(C#N)C(=C(C#N)C#N)OC2(C)C)s1 | 172 °C |
| O=C(c1c[nH]nc1-c1ccccc1)C(CCN1CCC(O)(c2ccccc2)CC1)c1ccc(Cl)c(Cl)c1 (stereo not drawn) | 99 to 101 °C |
| O=C1c2c(O)ccc(O)c2C(=O)c2c(NCCN3CCOC34CCCCC4)ccc(NCCN3CCOC34CCCCC4)c21 | 218 to 225 °C |
| NC(=S)c1c[nH]cc1-c1cccc(Cl)c1Cl | 128 to 132 °C |
| O=C(c1ccncc1)c1cc(-c2ccncc2)c(N2CCOCC2)s1 | 124 °C |
| Cc1cc(NCC(C)C)c(N)c2nnnn12 | 159 to 162 °C |
| NC(=O)c1c(C(=O)O)cnn1-c1cccc(Cl)c1 | 223 to 225 °C |
| OC(CCl)(c1ccccc1)c1ccc(-c2ccccc2)cc1 (stereo not drawn) | 94 °C |
| CC(=O)N1CC(CCN2CC=C(c3c[nH]c4cc(Cl)ccc34)CC2)c2cc(C)ccc21 (stereo not drawn) | 179 to 181 °C |
| CCOC(=O)C1=C(COC2CCN(C)CC2)NC(C)=C(C(=O)OC)C1c1cccc(C(F)(F)F)c1Cl (stereo not drawn) | 180 to 181 °C |
| Fc1ccc2c(c1)Sc1ccc(C(F)(F)F)cc1C2=C1CCNCC1 | 125 to 130 °C |
| CN(Cc1cc2c3c(c1)c(=O)c(C(=O)NCc1ccc(Cl)cc1)cn3CC(=O)N2C)C[C@H](O)c1cccnc1 | 125 to 127 °C |
| Cc1cc(C)n(-c2nc(Nc3ccccc3Cl)c3ccccc3n2)n1 | 210 to 217 °C |
| O=C(c1ccc(Cl)cc1)C(Oc1cccc(Cl)n1)n1cncn1 (stereo not drawn) | 162 °C |
| COc1cc(OC)c(-c2cc3ccccc3n2C)cc1C=CC(=O)c1ccc(S(=O)(=O)NCc2cccnc2)cc1 | 202 to 203 °C |
| O=C1CCc2cc(NCC(=O)N3CCC(Cc4ccccc4)CC3)ccc2N1 | 184 to 187 °C |
| NS(=O)(=O)c1ccc(CCN2CCC(N3CCc4ccccc43)CC2)cc1 | 207 to 210 °C |
| Cc1ccc(-c2ccc(C(=O)c3ccccc3)cc2)cc1 | 124 to 125 °C |

| Compound | melting point |
| --- | --- |
| CC(C)(C)OC(=O)N(Cc1ccccc1)C1CN(C(c2ccccc2)c2ccccc2)C1 | 117 to 118 °C |
| C(=Cc1ccccc1)CN1CCN(C(c2ccccc2)c2ccccc2)CC1 | 110 °C |
| C[C@H]1Cn2c(=O)[nH]c3c(Br)ccc(c32)CN1C(=O)OC(C)(C)C | 229 °C |
| COC1CC(NC(C)=O)C(OC(=O)c2ccccc2)C(CBr)O1 (stereo not drawn) | 173 °C |
| Cc1cc(-c2cc(C(F)F)n3ncc(C(=O)Nc4cccc(S(N)(=O)=O)c4)c3n2)ccc1C(F)(F)F | 252 °C |
| CSc1ccccc1C=NO | 88 to 89 °C |
| COCCN(C)Cc1c(-c2ccc(NC(=O)NOC)cc2)sc2c1c(=O)n(-c1ccccc1)c(=O)n2Cc1c(F)cccc1F | 161 to 163 °C |
| CCOC(=O)c1c(CN(C)C2CCCCC2)nc2cc(OC)c(OC)cc2c1-c1ccc(OC)c(OC)c1 | 172 to 174 °C |
| COc1cc(C)c(C(=O)CCCCCCCCCCCO)c(O)c1OC | 82 °C |
| CC1=NOC2C3CC(C12)C1C(=O)OC(=O)C31 (stereo not drawn) | 194 to 197 °C |
| CC(C)c1sc2ncnc(N)c2c1-c1ccc(N)cc1 | 187 to 189 °C |
| Nc1sc2c(c1C(=O)c1ccc3ccccc3c1)CCN(Cc1ccc(F)cc1)C2 | 94 to 96 °C |
| CC1(C)C=C(N2CCNCC2=O)c2cnccc2O1 | 109 to 110 °C |
| CCc1nc(/C=C/c2cn(-c3ccccc3)nc2OCc2ccc(OCc3nc(-c4cccc(C#N)c4)oc3C)c(OC)c2)cs1 | 138 to 140 °C |
| COc1ccc(/C=C/c2ccccn2)cc1OC1CCCC1 | 76 to 77.5 °C |
| c1ccc2c3c([nH]c2c1)CCC3 | 135 °C |
| Cc1ccc(Nc2cccc3c2OC(COS(=O)(=O)c2ccc(C)cc2)C3)cc1 (stereo not drawn) | 118 to 120 °C |
| C[Si](C)(C)C#Cc1ccc(C#Cc2ccc(F)cc2)cc1 | 144 to 146 °C |
| CC#CC(=O)N[C@H]1CC[C@H](CCN2CCC(c3cccc4c3CCO4)CC2)CC1 | 195 °C |

Further lines, results first:

| melting point | Compound |
| --- | --- |
| 122 °C | CC(=O)N1N=C(c2ccncc2)OC1c1ccc(Cl)c([N+](=O)[O-])c1 (stereo not drawn) |
| 257 to 260 °C | O=C1Cc2c(cc(Br)c3ccccc23)C(c2ccccc2F)N1 (stereo not drawn) |
| 74 to 75 °C | Cc1cc2c(cc1Sc1ccc(C(=O)O)c(O)c1)C(C)(C)CCC2(C)C |
| 140 to 142 °C | N#Cc1ccc(Oc2ccc([N+](=O)[O-])c(Oc3ccccc3)c2Cl)cc1 |
| > 300 °C | O=[N+]([O-])c1cnc2cc(Cl)ccc2c1O |
| 115 to 117 °C | C#CCOc1ccc(C(=O)C=Cc2ccccc2)c(O)c1 |
| 81 to 82 °C | Cc1csc(Cc2ccc([N+](=O)[O-])cc2)n1 |
| 156 to 158 °C | COc1ccc2c(c1)CCN(C=O)C2c1cc(Cl)nc(Cl)c1 (single isomer, unassigned; (-)) |
| 173 to 174 °C | CN(C(CCn1c(=O)cc(C(F)(F)F)[nH]c1=O)C(=O)NO)S(=O)(=O)c1ccc(Oc2ccc(Cl)cc2)cc1 (stereo not drawn) |
| 135 °C | CS(=O)(=O)c1ccc(Oc2ccc([N+](=O)[O-])c(NCCC(N)=O)c2)c(Cl)c1 |
| 218 to 220 °C | O=[N+]([O-])c1ccc(Oc2ccc3ccc(Oc4ccc([N+](=O)[O-])c(O)c4)cc3c2)cc1O |
| 161 to 163 °C | CCOC(=O)CC1=C(O)c2sccc2S(=O)(=O)N1C |
| 166 to 167 °C | O=c1c2cccc3ncc(c(=O)n1CCCCCNS(=O)(=O)C(F)(F)F)n32 |
| 112 °C | CCOc1cc(C(C)C)c2c(c1)S(=O)(=O)N(CSc1ccccc1)C2=O |
| 224 to 226 °C | Cn1c(=O)c(-c2c(Cl)cccc2Cl)cc2cnc(NCc3cccnc3)nc21 |
| 97 to 98 °C | CCOC(=O)COc1cc(C)nc2c(O)cccc12 |
| 230 to 232 °C | CC(C)(Cn1c(CO)nc2c(N)nc3ccccc3c21)CS(C)(=O)=O |
| 190 °C | COc1cc2c(cc1OC)CN(CCCOc1ccc(NC(=O)c3cccc4c(=O)c5cccc(OC)c5[nH]c34)cc1)CC2 |
| 230 to 231 °C | CCCNC(=O)C(C)=Cc1ccc2c(c1)c(Cc1ccc(C(=O)NS(=O)(=O)c3ccccc3C)cc1OC)cn2CC(=O)N(C)C |
| 255 to 257 °C | CCn1nc(-c2ccccc2)c(C(=O)O)c(Nc2cccnc2)c1=O |
| 151 to 152 °C | CCCOc1ccc2c(O)c([N+](=O)[O-])c(=O)oc2c1 |
| 239 to 242 °C | Cn1c(=O)c(=NO)nc(-c2ccccc2)c2ccccc21 |
| 152 °C | CC(O)CN(C)Cc1cc2c(=O)c(C(=O)NCc3ccc(Cl)cc3)cn(C)c2o1 (stereo not drawn) |
| 129 to 131 °C | CCCCc1ccc(C(=O)Cc2ccc(Br)cc2)cc1 |
| 128 to 130 °C | Nc1ccc(Oc2c(Cl)cc(C(F)(F)F)cc2Cl)cc1 |
| 143 to 145 °C | O=C(O)Cc1ccc(OCc2ccccc2)c(C(=O)O)c1 |
| 323 to 325 °C | COc1cc2c(cc1OC)-c1cc(=O)[nH]c(=O)n1CC2 |
| 115 to 120 °C | N#CCNS(=O)(=O)c1ccc([N+](=O)[O-])cc1 |
| 72 to 74 °C | COc1cc(O)cc(CN2C(=O)N(c3cnn(Cc4c(C)noc4C)c3)C(=O)C2(C)C)c1 |
| 180 to 182 °C | CCCc1c(OCCCOc2ccc(C(=O)O)cc2Br)ccc(C(C)=O)c1O |
